Test results from patent US20120214778A1 (priority 2009, published 2012).

How the values were obtained:
[1] = tested on: oestrogen receptor positive advanced breast cancer; experiment: CONFIRM phase III study, fulvestrant 500 mg vs 250 mg: efficacy; conditions: for Number progressed / Number progressed (%): progressed or died at data cut-off; for Median DoR: from randomisation, patients with OR;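 as to all read-outs here: efficacy outcomes summarised by randomised treatment arm using the full analysis set of patients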
Procedure: The primary outcome variable TTP; secondary variables were ORR, CBR, DoR, DoCB and OS.
For the primary endpoint TTP, the primary analysis was an unadjusted log-rank test and the secondary analysis was a Cox proportional hazard model, adjusted for treatment and other predefined covariates.
For OS, the unadjusted log-rank test was performed. For ORR and CBR, a logistic regression model with treatment factor only was fitted. […] For HRQoL endpoints, a longitudinal model with treatment and other covariates was used.
For efficacy and HRQoL endpoints, summaries and analyses were carried out according to the randomised treatment i.e., using the Full Analysis Set. For safety endpoints, summaries and analyses were carried out according to the treatment actually received, i.e., using the safety analysis set. The primary endpoint was also analysed in the per protocol set (PPS).
Time to progression is the time between randomisation and the earliest of progression or death from any cause.

[2] = tested on: advanced breast cancer; conditions: 250 mg, cited from earlier work
[3] = CONFIRM phase III study: safety and tolerability (adverse events); format: in vivo, postmenopausal women
Excerpt: Outcome variables for safety were frequency and severity of adverse events (AEs), including pre-specified AEs of interest.
Patients could be discontinued from study treatment and assessments at any time at the discretion of the investigators. Patients were also free to discontinue their participation in the study at any time, without prejudice to further treatment. Specific reasons for discontinuing a patient from this study, and the procedures to be followed when a patient discontinued or was incorrectly enrolled, are listed in Section 3.3.5 of the CSP. For patients who discontinued, it was noted whether they were assessed after study medication was stopped, and whether they were asked about the reason(s) for their discontinuation and about the presence of any adverse events (AEs). If possible, they were seen and assessed by an investigator. AEs were followed up for 56 days after the last injection.

Structure (SMILES): C[C@]12CC[C@@H]3c4ccc(O)cc4C[C@@H](CCCCCCCCC[S+]([O-])CCCC(F)(F)C(F)(F)F)[C@H]3[C@@H]1CC[C@@H]2O (stereo partly drawn) [fulvestrant, 7alpha-[9-(4,4,5,5,5-pentafluoropentylsulfinyl)-nonyl]estra-1,3,5, (10)-triene-3, 17beta-diol]
- Time to progression (months): 25% quartile ([1]; 250 mg): 2.7 months
- Time to progression (months): 75% quartile ([1]; 250 mg): 11.9 months
- expected DoCB (EDoCB) ([1]; 250 mg): 7.24 months
- proportion of patients with a best objective response of progressive disease ([1]; 250 mg): 44.7%
- Median TTP ([1]; 250 mg im every 28 days, N = 374): 5.5 months
- Percentage of patients progression free at 6 months ([1]; 250 mg): 45%
- % patients progression free at 12 months ([1]; 250 mg): 25%
- % patients progression free at 12 months ([1]; 250 mg, listed as Fulvestrant): 25%
- Percentage of patients progression free at 18 months ([1]; 250 mg): 14%
- % patients alive at 24 months ([1]; 250 mg): fulvestrant 250 mg = 49%
- Percentage of patients progression free at 24 months ([1]; 250 mg): 11%
- Number progressed ([1]; 250 mg, N = 374): 321
- Number progressed (%) ([1]; 250 mg, N = 374): 85.8%
- Median DoR ([1]; 250 mg): 250 mg = 16.4 months
- Time to progression (months): 25% quartile ([1]; 500 mg): 2.8 months
- Time to progression (months): 75% quartile ([1]; 500 mg): 16.6 months
- expected DoCB (EDoCB) ([1]; 500 mg): 9.83 months
- proportion of patients with a best objective response of progressive disease ([1]; 500 mg): 38.7%
- reduction in risk of death ([1]; 500 mg compared with 250 mg): 16%
- reduction in risk of progression ([1]; 500 mg compared with 250 mg): 20%
- Median TTP ([1]; 500 mg im days 0, 14, 28 then every 28 days, N = 362): 6.5 months
- Ratio of EDoR (95% CI) ([1]; 500 mg vs 250 mg, from randomisation to progression): Ratio of EDoR = 0.894 (95% CI 0.479-1.667); p = 0.724
- Percentage of patients progression free at 6 months ([1]; 500 mg): 51%
- % patients progression free at 12 months ([1]; 500 mg): 34%
- % patients progression free at 12 months ([1]; 500 mg, listed as Fulvestrant): 34%
- Percentage of patients progression free at 18 months ([1]; 500 mg): 23%
- % patients alive at 24 months ([1]; 500 mg): % patients alive at 24 months: fulvestrant 500 mg = 53%;
- Percentage of patients progression free at 24 months ([1]; 500 mg): 16%
- Number progressed ([1]; 500 mg, N = 362): 297
- Number progressed (%) ([1]; 500 mg, N = 362): 82.0%
- Median DoR ([1]; 500 mg): Median DoR^c: fulvestrant 500 mg = 19.4 months; fulvestrant
- efficacy compared with anastrozole ([2]; Studies 20/21): non-inferior to anastrozole
- Median TTP ([2]; combined analysis of Studies 20/21): 5.5 months
- gastrointestinal disturbances (pre-specified AE), patients ([3]; 250 mg): approximately 20%
- joint disorders (pre-specified AE), patients ([3]; 250 mg): ~19%
- gastrointestinal disturbances (pre-specified AE), patients ([3]; 500 mg): approximately 20%
- joint disorders (pre-specified AE), patients ([3]; 500 mg): ~19%
- tolerability ([3]; 500 mg): well tolerated
- dose dependence of adverse events ([3]; 500 mg vs 250 mg): no evidence for dose dependence for any AE
